The results in this text go back to patent US12398121B2 (Nuvation Bio Inc., priority 2018, dated 2025).

The target of assay [1] is Human recombinant PARP2 (Homo sapiens, UniProt Q9UGN5). Kind of assay: RBC HotSpot PARP2 radioisotope-based filter binding assay. It is filed as biochemical. As to the method:
(§1) The following methods are for evaluating the in vitro biology properties of the test articles. • a. RBC HotSpot Poly(ADP-ribose) Polymerases 1 (PARP1) and Poly(ADP-ribose) Polymerases 2 (PARP2) Assays: The assay principle is radioisotope-based filter binding assay where incorporation of radioisotope-labeled NAD^+ into the substrate captured on filter is detected after washout free NAD^+. Data were analyzed using Excel and GraphPad Prism software for IC50 curve fits. Each assay was conducted with PJ34 as a positive control. • i. PARP1 assay: Human recombinant PARP1 at a final concentration of 2.5 nM was combined with histone H4 (20 μM) and test articles at various concentrations in reaction buffer (50 mM Tris-HCL, pH 8.0, 50 mM NaCl, 10 mM MgCl2, 1 mM DTT, 1% DMSO, and 20 μg/mL activated DNA). The solution was inoculated for 20 min at room temperature and the reaction initiated by adding [adenylate-^32P]-Nicotinamide Adenine Dinucleotide, ^32P-NAD^+ at a final concentration of 10 μM. After incubation for 2 hour at room temperature, the reaction mixture was filtered and washed with 0.75% phosphoric acid for radioactivity detection. • ii. PARP2 assay: Human recombinant PARP2 at a final concentration of 2.5 nM was combined with histone H3 (20 μM) and test articles at various concentrations in reaction buffer (50 mM Tris-HCL, pH 8.0, 50 mM NaCl, 10 mM MgCl2, 1 mM DTT, 1% DMSO, and 20 μg/mL activated DNA). The solution was inoculated for 20 min at room temperature and the reaction was initiated by adding [adenylate-^32P]-Nicotinamide Adenine Dinucleotide, ^32P-NAD^+ at a final concentration of 10 μM. After incubation for 2 hour at room temperature, the reaction mixture was filtered and washed with 0.75% phosphoric acid for radioactivity detection. • b. AR binding assay: AR in LNCaP cytosol was used for determining the binding affinity of test articles and the reference compound—progesterone (Sigma, Cat: E2785, St. Louis, MO). IC50s were determined using 8 concentrations/compound. Cytosol was plated at 200 μg/well (100 μL) into a 96-well conical polypropylene plate (Agilent, Cat: 5042-1385, Santa Clara, CA) and mixed with 3 μL of test compound. After adding 100 μL of ^3H-methyltrienolone (PerkinElmer, Cat: NET590250UC, San Jose, CA), the plate was sealed and shaken at 300 rpm at 4° C. for 24 hours. Post incubation, 100 μL of radioligand adsorption buffer containing 10 mM Tris-HCl, pH 7.4; 1.5 mM EDTA; 1 mM DTT; 0.25% charcoal; 0.0025% dextran was added to individual well. Plate was shaken for 15 min at 4′C followed by centrifugation at 3000 rpm for 30 min at 4° C. 150 μL of supernatant was transferred into scint-tube (PerkinElmer, Cat: 6000192) and mixed with 2 mL of Ultima Gold Cocktail (PerkinElmer, Cat: 6013329). Radioactivity was counted using a TriCarb 2910 TR scintillation counter (PerkinElmer). Inhibition of the radioactivity by test articles were calculated using the equation below: % Inhibition=(1−(Assay well−Average_LC)/(Average_HC−Average_LC))×100%.

In assay [2] the target is T1, AR in LNCaP cytosol (Homo sapiens, UniProt P10275, T878A).
T1 construct: endogenous in cells; host or cells: LNCaP cytosol
T1 sequence (P10275 1-920 T878A): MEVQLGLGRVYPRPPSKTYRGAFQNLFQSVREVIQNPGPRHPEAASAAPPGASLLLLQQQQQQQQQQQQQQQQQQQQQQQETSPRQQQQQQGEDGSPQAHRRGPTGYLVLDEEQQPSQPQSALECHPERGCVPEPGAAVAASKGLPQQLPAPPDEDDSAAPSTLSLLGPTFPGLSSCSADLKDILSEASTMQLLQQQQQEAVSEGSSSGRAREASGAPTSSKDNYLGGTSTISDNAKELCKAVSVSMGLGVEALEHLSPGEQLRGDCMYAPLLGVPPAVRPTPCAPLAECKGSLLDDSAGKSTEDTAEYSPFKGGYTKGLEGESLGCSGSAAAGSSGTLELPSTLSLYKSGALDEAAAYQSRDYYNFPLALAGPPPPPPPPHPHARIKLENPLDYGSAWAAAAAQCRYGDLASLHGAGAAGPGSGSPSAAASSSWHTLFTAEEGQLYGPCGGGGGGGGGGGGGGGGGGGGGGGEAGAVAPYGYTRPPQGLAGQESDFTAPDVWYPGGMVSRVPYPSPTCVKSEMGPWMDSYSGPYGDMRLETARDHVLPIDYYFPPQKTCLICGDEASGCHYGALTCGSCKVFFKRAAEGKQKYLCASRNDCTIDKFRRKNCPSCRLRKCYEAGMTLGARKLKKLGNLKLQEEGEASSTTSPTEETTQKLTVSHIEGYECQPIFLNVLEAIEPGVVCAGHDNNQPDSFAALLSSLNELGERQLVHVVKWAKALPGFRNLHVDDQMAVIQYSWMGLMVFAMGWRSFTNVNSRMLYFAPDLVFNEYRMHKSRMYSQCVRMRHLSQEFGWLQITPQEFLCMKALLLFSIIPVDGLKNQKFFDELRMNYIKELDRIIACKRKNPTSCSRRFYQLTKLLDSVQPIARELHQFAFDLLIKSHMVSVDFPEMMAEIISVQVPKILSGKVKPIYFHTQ
Kind of assay: AR binding assay (3H-methyltrienolone displacement). The procedure:
as §1
IC50 values were calculated and graphed using the model “log(inhibitor) vs. response—Variable slope” included in GraphPad Prism 5 (San Diego, CA). The Ki values were further calculated using the equation below where [L] was the radioligand concentration (1 nM) using in this study. Kd value was 0.332 nM. Ki=IC50/(1+[L]/Kd) c. AR transactivation: Human AR cloned into a CMV vector backbone was used for the transactivation study. HEK-293 cells were plated at 80,000 cells per well of a 24 well plate in DME+5% csFBS. Twenty four hours later, the cells were transfected using Lipofectamine (Invitrogen, Carlsbad, CA) with 0.25 μg GRE-LUC, 0.01 μg CMV-LUC (renilla luciferase) and 25 ng of the AR in OPTIMEM medium. The cells were treated 24 hrs after transfection with various ligands (10^−12 to 10^−5 M final concentrations) and luciferase assay were performed 48 hours after transfection. […]

Where [3] appears, read: 2.5 nM enzyme, histone H3, 10 μM 32P-NAD+, read-out: PARP2 IC50.

Read-outs that look alike come from different tables or passages of the source.

Human recombinant PARP2, sequence (Q9UGN5 whole entry): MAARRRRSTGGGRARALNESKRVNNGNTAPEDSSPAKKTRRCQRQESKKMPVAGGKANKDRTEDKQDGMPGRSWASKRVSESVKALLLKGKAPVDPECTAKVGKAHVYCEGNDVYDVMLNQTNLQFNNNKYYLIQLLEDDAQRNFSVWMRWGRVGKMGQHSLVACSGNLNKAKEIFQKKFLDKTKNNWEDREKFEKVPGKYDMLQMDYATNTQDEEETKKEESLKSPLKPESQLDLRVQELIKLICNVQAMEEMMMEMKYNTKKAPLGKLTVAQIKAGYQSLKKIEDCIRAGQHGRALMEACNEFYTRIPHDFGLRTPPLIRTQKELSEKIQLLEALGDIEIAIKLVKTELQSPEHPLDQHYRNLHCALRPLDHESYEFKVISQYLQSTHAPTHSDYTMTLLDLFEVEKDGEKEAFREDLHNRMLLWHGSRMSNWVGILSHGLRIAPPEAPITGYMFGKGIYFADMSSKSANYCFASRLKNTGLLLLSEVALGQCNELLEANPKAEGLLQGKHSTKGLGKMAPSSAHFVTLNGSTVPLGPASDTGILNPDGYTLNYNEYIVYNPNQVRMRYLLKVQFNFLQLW

For the compound `C[C@](O)(CS(=O)(=O)c1ccc(NCCN2CCN(C(=O)c3cc(Cc4n[nH]c(=O)c5ccccc45)ccc3F)CC2)cc1)C(=O)Nc1ccc(C#N)c(C(F)(F)F)c1` [Compound 1.99, (R)-N-(4-cyano-3-(trifluoromethyl)phenyl)-3-(4-(2-(4-(2-fluoro-5-((4-oxo-3,4-dihydrophthalazin-1-yl)methyl)benzoyl)piperazin-1-yl)ethylamino)phenylsulfonyl)-2-hydroxy-2-methylpropanamide], the IC50 in assay [1] came out at 200 pM. For the same compound, the Ki in assay [2] stood at 197000 pM.

Regarding `C[C@]12CCC(=O)C[C@@H]1CC[C@@H]1[C@@H]2CC[C@]2(C)[C@@H](OCCCCCC(=O)N3CCN(C(=O)c4cc(Cc5n[nH]c(=O)c6ccccc56)ccc4F)CC3)CC[C@@H]12` [Compound 1.2, 4-(3-(4-(6-(((5S,8R,9S,10S,13S,14S,17S)-10,13-dimethyl-3-oxohexadecahydro-1H-cyclopenta[a]phenanthren-17-yl)oxy)hexanoyl)piperazine-1-carbonyl)-4-fluorobenzyl)phthalazin-1(2H)-one], in assay [1] (setting [3]), the IC50 is 200 pM. Also, affinity in assay [2] was put at a Ki of 1310 pM.

For the compound `CCC(=C(c1ccc(O)cc1)c1ccc(OCCN2CCN(C(=O)c3cc(Cc4n[nH]c(=O)c5ccccc45)ccc3F)CC2)cc1)c1ccccc1` [Compound 2.14, 4-(4-fluoro-3-(4-(2-(4-(1-(4-hydroxyphenyl)-2-phenylbut-1-enyl)phenoxy)ethyl)piperazine-1-carbonyl)benzyl)pthalazin-1(2H)-one], the IC50 in assay [1] (setting [3]) stood at 12400 pM.

As to `C[C@]12CCC(F)(F)C[C@@H]1CC[C@@H]1[C@@H]2CC[C@]2(C)[C@@H](OCCCCCC(=O)N3CCN(C(=O)c4cc(Cc5n[nH]c(=O)c6ccccc56)ccc4F)CC3)CC[C@@H]12` [Compound 1.114, 4-(3-(4-(6-((5S,8R,9S,10S,13S,14S,17S)-3,3-difluoro-10,13-dimethylhexadecahydro-1H-cyclopenta[a]phenanthren-17-yloxy)hexanoyl)piperazine-1-carbonyl)-4-fluorobenzyl)phthalazin-1(2H)-one], the IC50 in assay [1] (setting [3]) is 1900 pM. In addition, the Ki in assay [2] was determined as 19000 pM.

Consider `C[C@](O)(CS(=O)(=O)c1ccc(NCCCCCC(=O)N2CCN(C(=O)c3cc(Cc4n[nH]c(=O)c5ccccc45)ccc3F)CC2)cc1)C(=O)Nc1ccc(C#N)c(C(F)(F)F)c1` [Compound 1.68, (R)-N-(4-cyano-3-(trifluoromethyl)phenyl)-3-(4-(6-(4-(2-fluoro-5-((4-oxo-3,4-dihydrophthalazin-1-yl)methyl)benzoyl)piperazin-1-yl)-6-oxohexylamino)phenylsulfonyl)-2-hydroxy-2-methylpropanamide], for which, in assay [1], the IC50 stood at 200 pM. Besides, the Ki in assay [2] came to 907000 pM.

As for `CN(CCCCCC(=O)N1CCN(C(=O)c2cc(Cc3n[nH]c(=O)c4ccccc34)ccc2F)CC1)CCOc1ccc(C(=O)c2c(-c3ccc(O)cc3)sc3cc(O)ccc23)cc1` [Compound 2.4, 4-(4-fluoro-3-(4-(6-((2-(4-(6-hydroxy-2-(4-hydroxyphenyl)benzo[b]thiophene-3-carbonyl)phenoxy)ethyl)(methyl)amino)hexanoyl)piperazine-1-carbonyl)benzyl)phthalazin-1(2H)-one], the IC50 in assay [1] (setting [3]) amounted to 300 pM.

Turning to `C[C@](O)(CS(=O)(=O)c1ccc(NCC(=O)N2CCN(C(=O)c3cc(Cc4n[nH]c(=O)c5ccccc45)ccc3F)CC2)cc1)C(=O)Nc1ccc(C#N)c(C(F)(F)F)c1` [Compound 1.98, (R)-N-(4-cyano-3-(trifluoromethyl)phenyl)-3-(4-(2-(4-(2-fluoro-5-((4-oxo-3,4-dihydrophthalazin-1-yl)methyl)benzoyl)piperazin-1-yl)-2-oxoethylamino)phenylsulfonyl)-2-hydroxy-2-methylpropanamide], the IC50 in assay [1] stood at 100 pM. The same compound gave a Ki in assay [2] of 181000 pM.

As for `C[C@]12CCC(=O)C[C@@H]1CC[C@@H]1[C@@H]2CC[C@@]2(C)[C@H]1CC[C@@]2(O)CCCN1CCN(C(=O)c2cc(Cc3n[nH]c(=O)c4ccccc34)ccc2F)CC1` [Compound 1.119, 4-(4-fluoro-3-(4-(3-((5S,8R,9S,10S,13S,14S,17R)-17-hydroxy-10,13-dimethyl-3-oxohexadecahydro-1H-cyclopenta[a]phenanthren-17-yl)propyl)piperazine-1-carbonyl)benzyl)phthalazin-1(2H)-one], in assay [1] (setting [3]), the IC50 is 300 pM. Moreover, the Ki in assay [2] came out at 20000 pM.

As for `C[C@]12CCC(=O)C[C@@H]1CC[C@@H]1[C@@H]2CC[C@@]2(C)[C@H]1CC[C@@]2(O)CCC(=O)N1CCN(C(=O)c2cc(Cc3n[nH]c(=O)c4ccccc34)ccc2F)CC1` (stereo in doubt) [Compound 1.117, 4-(4-fluoro-3-(4-(3-((5S,8R,9S,10S,13S,14S,17R)-17-hydroxy-10,13-dimethyl-3-oxohexadecahydro-1H-cyclopenta[a]phenanthren-17-yl)propanoyl)piperazine-1-carbonyl)benzyl)phthalazin-1(2H)-one], in assay [1] (setting [3]), the IC50 was determined as 100 pM. Also, in assay [2], the Ki was 60000 pM.

Regarding `O=C(c1ccc(OCCN2CCN(C(=O)c3cc(Cc4n[nH]c(=O)c5ccccc45)ccc3F)CC2)cc1)c1c(-c2ccc(O)cc2)sc2cc(O)ccc12` [Compound 2.13, 4-(4-fluoro-3-(4-(2-(4-(6-hydroxy-2-(4-hydroxyphenyl)benzo[b]thiophene-3-carbonyl)phenoxy)ethyl)piperazine-1-carbonyl)benzyl)phthalazin-1(2H)-one], in assay [1] (setting [3]), the IC50 was 500 pM.

Turning to `CC1(C)C(=O)N(c2ccc(C#N)c(C(F)(F)F)c2)C(=S)N1c1ccc(C(=O)NCCCCCC(=O)N2CCN(C(=O)c3cc(Cc4n[nH]c(=O)c5ccccc45)ccc3F)CC2)c(F)c1` [Compound 1.1, 4-(3-(4-cyano-3-(trifluoromethyl)phenyl)-5,5-dimethyl-4-oxo-2-thioxoimidazolidin-1-yl)-2-fluoro-N-(6-(4-(2-fluoro-5-((4-oxo-3,4-dihydrophthalazin-1-yl)methyl)benzoyl)piperazin-1-yl)-6-oxohexyl)benzamide], the IC50 in assay [1] amounted to 200 pM.
